{"source": "ChEMBL document CHEMBL4507282", "about": "“Data for DCP probe BI-1950” (2021)", "key": {"[1]": {"target": "Serotonin 1 (5-HT1) receptor (Rattus norvegicus) (UniProt P28564+P30940+P19327+P28565)", "assay": "5HT1/R Eurofins-Panlabs selectivity data (BI)", "format": "protein assay", "conditions": "Compound concentration 10.0 uM"}, "[2]": {"target": "Serotonin 2 (5-HT2) receptor (Rattus norvegicus) (UniProt P30994+P08909+P14842)", "sequence (P08909 whole entry, looked up)": "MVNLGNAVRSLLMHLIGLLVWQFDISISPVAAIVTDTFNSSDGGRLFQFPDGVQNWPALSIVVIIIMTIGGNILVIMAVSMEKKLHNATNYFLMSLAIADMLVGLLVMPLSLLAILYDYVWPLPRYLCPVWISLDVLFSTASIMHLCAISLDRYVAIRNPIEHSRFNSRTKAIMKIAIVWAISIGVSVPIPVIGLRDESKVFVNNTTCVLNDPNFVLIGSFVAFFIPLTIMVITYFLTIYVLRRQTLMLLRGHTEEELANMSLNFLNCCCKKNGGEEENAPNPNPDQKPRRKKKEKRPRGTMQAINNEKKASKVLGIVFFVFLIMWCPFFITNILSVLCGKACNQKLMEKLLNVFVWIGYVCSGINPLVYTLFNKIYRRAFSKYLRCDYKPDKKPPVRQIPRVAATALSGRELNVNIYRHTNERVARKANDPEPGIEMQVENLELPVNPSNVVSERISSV", "sequence (P14842 whole entry, looked up)": "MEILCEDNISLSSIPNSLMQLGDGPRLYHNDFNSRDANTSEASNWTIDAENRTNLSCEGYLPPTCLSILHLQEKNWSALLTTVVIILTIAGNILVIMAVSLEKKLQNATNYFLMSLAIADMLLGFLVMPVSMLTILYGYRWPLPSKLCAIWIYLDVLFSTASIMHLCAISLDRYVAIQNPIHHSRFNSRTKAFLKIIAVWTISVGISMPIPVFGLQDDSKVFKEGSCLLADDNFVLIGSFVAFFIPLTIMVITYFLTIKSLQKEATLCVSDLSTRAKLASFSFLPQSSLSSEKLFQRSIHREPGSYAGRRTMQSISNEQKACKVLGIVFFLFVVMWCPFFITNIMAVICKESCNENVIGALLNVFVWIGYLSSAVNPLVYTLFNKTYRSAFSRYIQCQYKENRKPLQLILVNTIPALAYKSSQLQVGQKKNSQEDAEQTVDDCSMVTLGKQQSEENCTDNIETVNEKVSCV", "sequence (P30994 whole entry, looked up)": "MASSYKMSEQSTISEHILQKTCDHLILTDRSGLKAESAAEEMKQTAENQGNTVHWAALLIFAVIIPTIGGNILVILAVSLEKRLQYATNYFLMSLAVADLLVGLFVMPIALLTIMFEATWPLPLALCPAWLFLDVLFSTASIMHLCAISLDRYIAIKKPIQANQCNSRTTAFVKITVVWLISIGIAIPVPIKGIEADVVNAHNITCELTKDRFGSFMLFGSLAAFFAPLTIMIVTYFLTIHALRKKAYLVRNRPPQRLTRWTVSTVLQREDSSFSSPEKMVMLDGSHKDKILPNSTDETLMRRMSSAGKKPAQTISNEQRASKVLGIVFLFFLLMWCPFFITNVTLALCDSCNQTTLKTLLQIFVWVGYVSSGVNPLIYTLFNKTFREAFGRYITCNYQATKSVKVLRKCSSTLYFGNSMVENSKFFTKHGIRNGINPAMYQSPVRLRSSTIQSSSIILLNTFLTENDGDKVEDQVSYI", "assay": "5HT2/R Eurofins-Panlabs selectivity data (BI)", "format": "protein assay", "conditions": "Compound concentration 10.0 uM"}, "[3]": {"target": "T1, 5-hydroxytryptamine receptor 3A (Homo sapiens) (UniProt P46098)", "T1 sequence (whole entry)": "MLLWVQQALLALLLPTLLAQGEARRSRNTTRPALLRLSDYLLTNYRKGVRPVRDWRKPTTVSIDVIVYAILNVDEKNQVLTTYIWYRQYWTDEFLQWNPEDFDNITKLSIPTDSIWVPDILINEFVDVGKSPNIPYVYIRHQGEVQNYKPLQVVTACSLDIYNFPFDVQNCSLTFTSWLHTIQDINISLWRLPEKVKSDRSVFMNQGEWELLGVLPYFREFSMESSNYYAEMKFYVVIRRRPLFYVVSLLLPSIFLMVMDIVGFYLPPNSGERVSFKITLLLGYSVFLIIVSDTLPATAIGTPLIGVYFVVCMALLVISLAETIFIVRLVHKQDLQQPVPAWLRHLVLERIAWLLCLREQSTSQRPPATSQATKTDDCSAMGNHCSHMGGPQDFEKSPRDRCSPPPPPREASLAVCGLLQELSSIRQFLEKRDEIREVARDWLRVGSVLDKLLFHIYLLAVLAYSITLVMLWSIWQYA", "assay": "5HT3/HU Eurofins-Panlabs selectivity data (BI)", "conditions": "Compound concentration 10.0 uM"}, "[4]": {"target": "5-hydroxytryptamine receptor 4 (Cavia porcellus) (UniProt O70528)", "sequence (O70528 whole entry)": "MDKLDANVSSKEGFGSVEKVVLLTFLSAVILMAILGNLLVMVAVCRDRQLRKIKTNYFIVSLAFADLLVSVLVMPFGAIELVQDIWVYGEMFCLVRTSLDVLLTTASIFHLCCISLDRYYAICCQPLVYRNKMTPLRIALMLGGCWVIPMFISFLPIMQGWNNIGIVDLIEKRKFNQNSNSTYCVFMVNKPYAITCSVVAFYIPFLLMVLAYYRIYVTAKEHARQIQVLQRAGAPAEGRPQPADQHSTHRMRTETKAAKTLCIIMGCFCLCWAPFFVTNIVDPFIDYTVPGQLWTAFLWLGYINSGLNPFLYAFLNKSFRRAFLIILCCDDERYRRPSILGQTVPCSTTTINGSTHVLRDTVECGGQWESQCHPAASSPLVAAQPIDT", "assay": "5HT4/GPIG Eurofins-Panlabs selectivity data (BI)", "conditions": "Compound concentration 10.0 uM"}, "[5]": {"target": "Adrenergic receptor alpha-2 (Rattus norvegicus) (UniProt P22086+P19328+P22909)", "assay": "ALPHA2/R Eurofins-Panlabs selectivity data (BI)", "format": "protein assay", "conditions": "Compound concentration 10.0 uM"}, "[6]": {"target": "Type-1 angiotensin II receptor (Oryctolagus cuniculus) (UniProt P34976)", "assay": "AT1 Eurofins-Panlabs selectivity data (BI)", "conditions": "Homo sapiens; Compound concentration 10.0 uM"}, "Cavia porcellus": {"species_on_record": "Cavia porcellus", "assay": "ATRANS Eurofins-Panlabs selectivity data (BI)", "conditions": "Compound concentration 10.0 uM"}, "[7]": {"target": "D(1A) dopamine receptor (Homo sapiens) (UniProt P21728)", "sequence (P21728 whole entry)": "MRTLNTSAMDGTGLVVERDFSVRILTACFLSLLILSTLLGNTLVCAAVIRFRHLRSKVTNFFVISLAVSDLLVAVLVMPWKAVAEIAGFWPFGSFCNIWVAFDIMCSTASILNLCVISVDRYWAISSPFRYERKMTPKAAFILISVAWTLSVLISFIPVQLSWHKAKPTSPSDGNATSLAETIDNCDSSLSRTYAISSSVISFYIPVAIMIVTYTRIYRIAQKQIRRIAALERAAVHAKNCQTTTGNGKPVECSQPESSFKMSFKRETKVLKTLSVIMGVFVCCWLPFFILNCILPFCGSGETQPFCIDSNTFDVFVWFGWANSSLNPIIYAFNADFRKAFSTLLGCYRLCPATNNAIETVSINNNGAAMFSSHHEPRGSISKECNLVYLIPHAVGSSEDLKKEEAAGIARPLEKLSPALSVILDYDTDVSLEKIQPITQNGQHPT", "assay": "D1/HU Eurofins-Panlabs selectivity data (BI)", "conditions": "Compound concentration 10.0 uM"}, "[8]": {"target": "Gamma-aminobutyric acid receptor subunit alpha-1 (Rattus norvegicus) (UniProt P62813)", "sequence (P62813 whole entry)": "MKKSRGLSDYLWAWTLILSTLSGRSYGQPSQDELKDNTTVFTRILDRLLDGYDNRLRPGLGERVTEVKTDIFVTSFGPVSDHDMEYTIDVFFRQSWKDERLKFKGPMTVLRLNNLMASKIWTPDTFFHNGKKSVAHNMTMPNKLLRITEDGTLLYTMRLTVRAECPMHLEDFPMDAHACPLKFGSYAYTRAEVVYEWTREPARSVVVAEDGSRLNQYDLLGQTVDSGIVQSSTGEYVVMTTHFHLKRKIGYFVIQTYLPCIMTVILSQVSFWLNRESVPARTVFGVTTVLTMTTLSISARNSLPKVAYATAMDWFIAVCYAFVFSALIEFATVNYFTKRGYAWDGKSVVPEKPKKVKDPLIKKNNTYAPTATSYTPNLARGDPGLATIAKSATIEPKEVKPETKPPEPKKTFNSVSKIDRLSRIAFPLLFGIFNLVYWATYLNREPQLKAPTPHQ", "assay": "GABAA MUSCIMOL CENT Eurofins-Panlabs selectivity data (BI)", "conditions": "Compound concentration 10.0 uM"}, "[9]": {"target": "GABA B receptor (Rattus norvegicus) (UniProt Q9Z0U4+O88871)", "assay": "GABAB/RA Eurofins-Panlabs selectivity data (BI)", "format": "protein-complex assay", "conditions": "Compound concentration 10.0 uM"}, "[10]": {"target": "Glutamate receptor ionotropic, NMDA 1 (Rattus norvegicus) (UniProt P35439)", "assay": "GLUTAMAT/R Eurofins-Panlabs selectivity data (BI)", "conditions": "Compound concentration 10.0 uM"}, "[11]": {"target": "Histamine H1 receptor (Homo sapiens) (UniProt P35367)", "assay": "H1/H Eurofins-Panlabs selectivity data (BI)", "conditions": "Compound concentration 10.0 uM"}, "[12]": {"target": "Histamine H3 receptor (Homo sapiens) (UniProt Q9Y5N1)", "sequence (Q9Y5N1 whole entry)": "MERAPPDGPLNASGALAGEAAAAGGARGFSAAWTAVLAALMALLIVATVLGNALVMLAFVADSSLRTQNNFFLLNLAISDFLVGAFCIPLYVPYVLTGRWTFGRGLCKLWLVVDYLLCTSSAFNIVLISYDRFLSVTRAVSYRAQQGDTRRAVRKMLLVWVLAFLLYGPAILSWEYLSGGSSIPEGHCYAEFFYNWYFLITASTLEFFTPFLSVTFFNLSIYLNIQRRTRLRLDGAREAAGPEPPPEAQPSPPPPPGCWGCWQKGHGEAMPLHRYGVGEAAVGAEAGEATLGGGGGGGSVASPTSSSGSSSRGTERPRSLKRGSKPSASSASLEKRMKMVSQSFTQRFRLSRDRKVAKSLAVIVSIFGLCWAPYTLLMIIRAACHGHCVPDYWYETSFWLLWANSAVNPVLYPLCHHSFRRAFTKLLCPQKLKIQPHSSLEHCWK", "assay": "H3/H Eurofins-Panlabs selectivity data (BI)", "conditions": "Compound concentration 10.0 uM"}, "[13]": {"target": "Potassium voltage-gated channel subfamily A member 1 (Rattus norvegicus) (UniProt P10499)", "sequence (P10499 whole entry)": "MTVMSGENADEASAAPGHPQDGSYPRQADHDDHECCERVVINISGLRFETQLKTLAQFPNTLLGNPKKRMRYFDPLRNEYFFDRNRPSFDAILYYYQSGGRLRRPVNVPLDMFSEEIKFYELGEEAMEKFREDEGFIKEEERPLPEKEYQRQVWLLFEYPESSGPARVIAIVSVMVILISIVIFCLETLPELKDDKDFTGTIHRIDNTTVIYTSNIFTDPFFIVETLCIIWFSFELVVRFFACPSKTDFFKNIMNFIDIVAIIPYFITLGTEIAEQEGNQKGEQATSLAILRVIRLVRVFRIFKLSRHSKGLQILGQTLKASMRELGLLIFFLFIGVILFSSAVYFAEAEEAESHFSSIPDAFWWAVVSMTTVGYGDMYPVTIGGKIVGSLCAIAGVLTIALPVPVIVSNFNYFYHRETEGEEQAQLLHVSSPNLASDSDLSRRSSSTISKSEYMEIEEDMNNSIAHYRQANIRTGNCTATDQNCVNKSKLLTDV", "assay": "K+/KA/R Eurofins-Panlabs selectivity data (BI)", "conditions": "Compound concentration 10.0 uM"}, "[14]": {"target": "ATP-sensitive inward rectifier potassium channel 1 isoform X1 (Mesocricetus auratus) (UniProt A0A1U8CU73)", "sequence (A0A1U8CU73 as listed by the source)": "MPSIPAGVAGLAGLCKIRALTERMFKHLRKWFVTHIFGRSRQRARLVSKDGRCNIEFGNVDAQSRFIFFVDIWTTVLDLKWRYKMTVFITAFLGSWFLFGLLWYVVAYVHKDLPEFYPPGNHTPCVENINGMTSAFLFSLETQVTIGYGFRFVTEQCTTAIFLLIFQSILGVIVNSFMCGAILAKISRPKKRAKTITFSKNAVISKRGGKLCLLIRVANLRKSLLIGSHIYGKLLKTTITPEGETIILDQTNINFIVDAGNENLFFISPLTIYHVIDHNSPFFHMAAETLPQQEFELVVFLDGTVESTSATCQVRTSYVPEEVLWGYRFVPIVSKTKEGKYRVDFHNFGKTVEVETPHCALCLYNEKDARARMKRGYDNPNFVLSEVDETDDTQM", "assay": "K+/KATP/HA Eurofins-Panlabs selectivity data (BI)", "conditions": "Compound concentration 10.0 uM"}, "[15]": {"target": "Small conductance calcium-activated potassium channel protein 1 (Rattus norvegicus) (UniProt P70606)", "assay": "K+/SKCA Eurofins-Panlabs selectivity data (BI)", "conditions": "Compound concentration 10.0 uM"}, "[16]": {"target": "Muscarinic acetylcholine receptor (Rattus norvegicus) (UniProt P08482+P08483+P08485+P08911+P10980)", "assay": "MUSCARIN/NS Eurofins-Panlabs selectivity data (BI)", "format": "protein assay", "conditions": "Compound concentration 10.0 uM"}, "[17]": {"target": "Muscarinic acetylcholine receptor M1 (Rattus norvegicus) (UniProt P08482)", "assay": "MUSCARIN/OTM Eurofins-Panlabs selectivity data (BI)", "conditions": "Compound concentration 10.0 uM"}, "[18]": {"target": "Sodium channel regulatory subunit beta-1 (Rattus norvegicus) (UniProt Q00954)", "sequence (Q00954 whole entry)": "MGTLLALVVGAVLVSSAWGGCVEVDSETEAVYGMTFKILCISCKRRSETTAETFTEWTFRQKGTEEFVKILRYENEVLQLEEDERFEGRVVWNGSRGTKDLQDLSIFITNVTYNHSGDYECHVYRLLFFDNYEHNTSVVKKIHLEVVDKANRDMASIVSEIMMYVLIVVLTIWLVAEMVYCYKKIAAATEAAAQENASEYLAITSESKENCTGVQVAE", "assay": "NA+/SITE2/RA Eurofins-Panlabs selectivity data (BI)"}, "[19]": {"target": "T2, Thromboxane-A synthase (Homo sapiens) (UniProt P24557)", "T2 sequence (whole entry)": "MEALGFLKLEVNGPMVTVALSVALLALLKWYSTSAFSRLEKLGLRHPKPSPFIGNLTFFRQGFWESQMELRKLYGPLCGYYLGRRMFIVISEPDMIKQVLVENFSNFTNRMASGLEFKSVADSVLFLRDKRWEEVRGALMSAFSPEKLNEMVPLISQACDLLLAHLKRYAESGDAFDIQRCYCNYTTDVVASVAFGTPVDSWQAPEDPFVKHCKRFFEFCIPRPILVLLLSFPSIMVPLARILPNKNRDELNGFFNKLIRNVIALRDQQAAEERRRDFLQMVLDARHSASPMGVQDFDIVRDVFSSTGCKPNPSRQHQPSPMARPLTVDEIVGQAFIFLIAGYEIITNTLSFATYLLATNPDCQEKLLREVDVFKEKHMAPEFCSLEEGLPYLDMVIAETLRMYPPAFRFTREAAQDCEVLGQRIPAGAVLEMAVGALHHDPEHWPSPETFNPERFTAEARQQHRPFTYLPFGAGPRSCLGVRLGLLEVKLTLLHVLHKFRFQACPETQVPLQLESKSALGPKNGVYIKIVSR", "assay": "THRO SYN(HU) Eurofins-Panlabs selectivity data (BI)"}, "[20]": {"target": "GABA-A receptor; anion channel (Rattus norvegicus) (UniProt O09028+P15431+P18506+P18508+P19969+P20236+P23574+P23576+P28471+P28473+P30191+P62813+P63079+P63138+Q91ZM7+Q9ES14)", "conditions": "Compound concentration 10.0 uM"}, "Rattus norvegicus": {"species_on_record": "Rattus norvegicus", "conditions": "Compound concentration 10.0 uM"}, "[21]": {"target": "Sigma intracellular receptor 2 (Homo sapiens, UniProt Q5BJF2)", "sequence (Q5BJF2 whole entry)": "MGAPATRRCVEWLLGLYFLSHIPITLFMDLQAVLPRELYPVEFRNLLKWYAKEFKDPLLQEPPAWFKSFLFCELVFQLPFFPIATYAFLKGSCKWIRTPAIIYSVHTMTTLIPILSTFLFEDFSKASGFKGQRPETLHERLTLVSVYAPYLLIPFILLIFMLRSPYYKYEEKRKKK", "assay": "GPCRScan assay: inhibition of Sigma 2", "parameters": "radioligand conc. used [nm] 5.0, parental cells HEKT"}, "tissue or blood": {"assay": "tissue or blood", "format": "tissue-based", "conditions": "Homo sapiens"}, "[22]": {"target": "Muscarinic acetylcholine receptor M1 (Homo sapiens) (UniProt P11229)", "conditions": "Compound concentration 10.0 uM"}, "[23]": {"target": "Muscarinic acetylcholine receptor M2 (Homo sapiens) (UniProt P08172)", "sequence (P08172 whole entry)": "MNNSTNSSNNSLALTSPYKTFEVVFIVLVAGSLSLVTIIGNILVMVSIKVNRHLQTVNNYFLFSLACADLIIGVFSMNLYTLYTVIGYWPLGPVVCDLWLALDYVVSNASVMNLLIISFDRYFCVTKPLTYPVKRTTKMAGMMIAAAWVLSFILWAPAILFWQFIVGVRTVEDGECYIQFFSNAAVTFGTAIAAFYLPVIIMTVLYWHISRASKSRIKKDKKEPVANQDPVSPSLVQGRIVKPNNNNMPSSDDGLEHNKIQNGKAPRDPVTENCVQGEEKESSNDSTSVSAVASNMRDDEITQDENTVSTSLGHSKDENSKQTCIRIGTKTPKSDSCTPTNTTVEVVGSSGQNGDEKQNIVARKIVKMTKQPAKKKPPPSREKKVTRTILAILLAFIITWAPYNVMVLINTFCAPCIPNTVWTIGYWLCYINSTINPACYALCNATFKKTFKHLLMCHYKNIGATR", "conditions": "Compound concentration 10.0 uM"}}, "data": [{"smiles": "C[C@H](NC(=O)c1cnc2n1[C@](C)(Cc1ccc(C#N)cc1)C(=O)N2c1cc(Cl)c(F)c(Cl)c1)C(=O)NC1(c2ccccn2)CC1", "note": "[BI 1950]", "values": [{"measurement": "residual activity", "setting": "[1]", "result": 100, "unit": "%"}, {"measurement": "residual activity", "setting": "[2]", "result": 98, "unit": "%"}, {"measurement": "residual activity", "setting": "[3]", "result": 134, "unit": "%"}, {"measurement": "residual activity", "setting": "[4]", "result": 83, "unit": "%"}, {"measurement": "residual activity", "setting": "[5]", "result": 88, "unit": "%"}, {"measurement": "residual activity", "setting": "[6]", "result": 90, "unit": "%"}, {"measurement": "residual activity", "setting": "Cavia porcellus", "result": 92, "unit": "%"}, {"measurement": "residual activity", "setting": "[7]", "result": 92, "unit": "%"}, {"measurement": "residual activity", "setting": "[8]", "result": 96, "unit": "%"}, {"measurement": "residual activity", "setting": "[9]", "result": 111, "unit": "%"}, {"measurement": "residual activity", "setting": "[10]", "result": 92, "unit": "%"}, {"measurement": "residual activity", "setting": "[11]", "result": 109, "unit": "%"}, {"measurement": "residual activity", "setting": "[12]", "result": 98, "unit": "%"}, {"measurement": "residual activity", "setting": "[13]", "result": 92, "unit": "%"}, {"measurement": "residual activity", "setting": "[14]", "result": 107, "unit": "%"}, {"measurement": "residual activity", "setting": "[15]", "result": 108, "unit": "%"}, {"measurement": "residual activity", "setting": "[16]", "result": 109, "unit": "%"}, {"measurement": "residual activity", "setting": "[17]", "result": 77, "unit": "%"}, {"measurement": "residual activity", "setting": "[18]; Compound concentration 0.03 uM", "result": 103, "unit": "%"}, {"measurement": "residual activity", "setting": "[18]; Compound concentration 0.1 uM", "result": 86, "unit": "%"}, {"measurement": "residual activity", "setting": "[18]; Compound concentration 0.3 uM", "result": 84, "unit": "%"}, {"measurement": "residual activity", "setting": "[18]; Compound concentration 1.0 uM", "result": 75, "unit": "%"}, {"measurement": "residual activity", "setting": "[18]; Compound concentration 3.0 uM", "result": 67, "unit": "%"}, {"measurement": "residual activity", "setting": "[18]; Compound concentration 10.0 uM", "result": 42, "unit": "%"}, {"measurement": "residual activity", "setting": "[19]; Compound concentration 0.03 uM", "result": 94, "unit": "%"}, {"measurement": "residual activity", "setting": "[19]; Compound concentration 0.1 uM", "result": 93, "unit": "%"}, {"measurement": "residual activity", "setting": "[19]; Compound concentration 0.3 uM", "result": 91, "unit": "%"}, {"measurement": "residual activity", "setting": "[19]; Compound concentration 1.0 uM", "result": 82, "unit": "%"}, {"measurement": "residual activity", "setting": "[19]; Compound concentration 3.0 uM", "result": 74, "unit": "%"}, {"measurement": "residual activity", "setting": "[19]; Compound concentration 10.0 uM", "result": 47, "unit": "%"}, {"measurement": "inhibition", "setting": "[20]", "result": 4.9, "unit": "%"}, {"measurement": "inhibition", "setting": "Rattus norvegicus", "result": 13.1, "unit": "%"}]}, {"smiles": "C[C@@]1(Cc2ccc(C#N)cc2)C(=O)N(c2cc(Cl)cc(Cl)c2)c2ncc(C(=O)NC3(c4nc(C5CCC5)no4)CC3)n21", "note": "[BI 9446]", "values": [{"measurement": "Ki", "setting": "[21]; read-out: Ki", "result": 558, "unit": "nM"}, {"measurement": "Ki", "setting": "[21]; read-out: pKi (converted)", "result": 507, "unit": "nM"}, {"measurement": "IC50", "setting": "tissue or blood", "result": "> 1000", "unit": "nM"}, {"measurement": "inhibition", "setting": "[22]", "result": -8.37, "unit": "%"}, {"measurement": "inhibition", "setting": "[23]", "result": -8.35, "unit": "%"}]}]}
